Laboratory results: patent publication EP2408450B1, “ALPHA-(N-SULFONAMIDO)ACETAMIDE COMPOUND AS AN INHIBITOR OF BETA AMYLOID PEPTIDE PRODUCTION” (Bristol-Myers Squibb Company, priority 2009, dated 2010)
pKi: −log10 of the molar value.

Legend:
[1] = test system: γ-secretase inhibitor binding sites in the brain; test: Gamma-secretase site occupancy in rat brain sections; format: in vivo
Description: Female Harlan Sprague-Dawley rats (∼200 - 250 g) were dosed daily by oral gavage with a dosing vehicle of 99% PEG-400, 1% Tween-80 at 4 mL/kg in the morning. […] All procedures were done in concordance with ACUC guidelines. […] Plasma was obtained after centrifugation. […] CSF samples were centrifuged to remove cells or debris prior to dilution at 1:2 in 4% BSA and frozen for subsequent analysis.
Brain sections were cut coronally at a thickness of 20 µm on a cryostat and thaw-mounted onto Superfrost Plus slides. Sections were saved at the level of the rostral hippocampus, with 3 sections per slide at intervals of about 120 µm, and frozen at -20°C until use. For occupancy studies, brain sections were warmed to room temperature, dried, incubated for 10 minutes in 50 mM HEPES buffer, pH 7.4, then transferred to the same buffer containing 1.5 nM [^3H]IN973 (Goldstein, M.E. et al., J. Pharmacol. Exp. Ther., 323:102-108 (2007)) or [^3H] (R)-4-((N-(1-amino-4-methyl-1-oxopentan-2-yl)-4-chlorophenylsulfonamido)methyl)-N-(2-methoxyethyl)benzamide and incubated at room temperature for 10 minutes. To define nonspecific binding, adjacent sections were incubated in buffer containing [^3H]IN973 or [^3H] (R)-4-((N-(1-amino-4-methyl-1-oxopentan-2-yl)-4-chlorophenylsulfonamido)methyl)-N-(2-methoxyethyl)benzamide, but including unlabeled γ-secretase inhibitor at 0.5 µM. After the incubation, the slides were washed three times for 2 minutes each in ice-cold PBS, pH 7.2, dipped in ice-cold distilled water, and dried with a fan blowing cool air. The slides were placed under tritium-sensitive phosphor storage screens (Amersham Biosciences, Arlington Heights, IL) and exposed in the dark for 7 days. Images were acquired from the phosphor storage screens using a Cyclone phosphor scanner (Packard, Meriden, CT) and OptiQuant acquisition and analysis software (Packard). Optical densities (expressed as digital light units per square millimeter) over areas of interest were measured and expressed as a percent of vehicle control.

[2] = test system: CYP3A4 mRNA; test: Induction of CYP3A4 mRNA in Fa2N-4 cells; details: Fa2N-4 hepatocytes, 3 days
Description: [[2-fluoro-4-(1,2,4-oxadiazol-3-yl)phenyl]methyl]amino]-5,5,5-trifluoropentanamide to induce CYP3A4 mRNA was evaluated in vitro using the Fa2N-4 cell line. The Fa2N-4 cell is an immortalized human hepatocyte line that was created using the Simian virus 40 (SV40) T antigen as the immortalizing gene, while retaining basal expression and inducibility of several CYP isoforms, including CYP3A4. Fa2N-4 cells and MFE Support Media F were provided by XenoTech, LLC (Lenexa, Kansas).
Upon the receipt of the cells, the media were changed and the cells maintained overnight in a humidified, CO2-supplied incubator. After this adaptation period, the cells were examined under a light microscope and a determination was made as to whether the cells were morphologically normal and suitable for use. During the treatment period, the cells were visually inspected on a daily basis; cellular morphology, confluency, and signs of toxicity due to the test article were documented as necessary. […] Rifampicin (10 µM), a prototypical CYP3A4 inducer, was used as the positive control. Fa2N-4 cells were exposed to the test articles for a total of 3 days. The culture medium was replaced daily with fresh medium containing the test articles. After a total of ~72 hours of exposure, medium was aspirated and the cells washed once with warm phosphate buffered saline solution before adding the cell lysis buffer (Qiagen, Valencia, CA).

[3] = molecular target: presenilin target site of the γ-secretase complex; test: Presenilin binding assay (radioligand displacement, THP-1 membranes); details: mean ± SD, n = 8
Description: Radioligand displacement assays with [^3H] (R)-4-((N-(1-amino-4-methyl-1-oxopentan-2-yl)-4-chlorophenylsulfonamido)methyl)-N-(2-methoxyethyl)benzamide were carried out using a method previously described for [^3H] (2R,3S)-2-isobutyl-N1-((S)-2-oxo-1-(3-phenoxybenzyl)azepan-3-yl)-3-propylsuccinamide (RE987, compound A [Seiffert, D. et al., "Presenilin-1 and -2 are molecular targets for γ-secretase inhibitors", J. Biol. Chem., 275(44):34086-34091 (2000)]). Several experiments were performed to confirm that [^3H] (R)-4-((N-(1-amino-4-methyl-1-oxopentan-2-yl)-4-chlorophenylsulfonamido)methyl)-N-(2-methoxyethyl)benzamide bound to γ-secretase. First, the specific binding of [^3H] […] (R)-4-((N-(1-amino-4-methyl-1-oxopentan-2-yl)-4-chlorophenylsulfonamido)methyl)-N-(2-methoxyethyl)benzamide binding to THP-1 membranes correlated well with γ-secretase potency both as measured using previous radioligand binding assays and inhibition of Aβ formation in cultured cells.
THP-1 cells were grown in Spinner cultures in RPMI 1640 containing L-glutamine (Life Technologies Inc.) and 10 µM β-mercaptoethanol to a cell density of 5 x 10^5/mL. […] Filters were washed three times with 0.3 mL per well of phosphate buffered saline pH 7.0 at 4°C and radioactivity was measured using a Wallac 1450 Microbeta liquid scintillation counter (PerkinElmer, Boston, MA). […]

Question: NC(=O)[C@@H](CCC(F)(F)F)N(Cc1ccc(-c2ncon2)cc1F)S(=O)(=O)c1ccc(Cl)cc1 [(2R)-2-[[(4-chlorophenyl)sulfonyl][[2-fluoro-4-(1,2,4-oxadiazol-3-yl)phenyl]methyl]amino]-5,5,5-trifluoropentanamide] was tested. Which site occupancy ([1]; single dose 1 mg/kg, by 24 hours) did it give?
Answer: gradually returned to baseline values

Question: What about the “brain γ-secretase binding sites occupied” value ([1]; single dose 1 mg/kg, two hours after dose) of the same molecule?
Answer: 75%

Question: And the “γ-secretase inhibitor binding sites in the brain occupied” value (“γ-secretase inhibitor binding sites” below) ([1]; single dose 10 mg/kg, 24 hr timepoint)?
Answer: 88%

Question: And the “γ-secretase inhibitor binding sites” value ([1]; single dose 10 mg/kg, all but the 24 hr timepoint)?
Answer: greater than 94%

Question: What about the “γ-secretase inhibitor binding sites” value ([1]; single dose 100 mg/kg, throughout the dosing interval) of the same molecule?
Answer: greater than 94%

Question: And the “increase in CYP3A4 mRNA expression over the vehicle control” value ([2]; highest concentration tested (20 µM))?
Answer: 2.6 fold

Question: What about the “induction of CYP3A4” value ([2]; lower concentrations (≤ 8.0 µM)) of the same molecule?
Answer: ≤ 2.0 fold

Question: And the pKi [3]?
Answer: 9.32
